According to PubChem BioAssay AID2060498 (Molecular Pharmacology Branch, DTP, NCI, 2025):

Tested on: 171881-019-R-J1-PDC tumor spheroids, viability
Experiment: Anticancer human tumor 171881-019-R-J1-PDC patient-derived invasive breast carcinoma cell line growth inhibition [GQUAD]
Settings: spheroids with HUVEC and MSC; for IC50: curve of first compound; for viability, T/C: stronger effect = lower value
Procedure, shortened: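 Multi-cell-type spheroids of tumor cells with HUVEC and mesenchymal stem cells, treated with drug combinations. Concentrations descend in half-log steps from near clinical Cmax, or from 10 microM where Cmax is unknown; viability read-out.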

[1] = second compound 0.0316 µM, first compound 0.0316 µM
[2] = second compound 0.0316 µM, first compound 0.1 µM
[3] = second compound 0.0316 µM, first compound 0.316 µM
[4] = second compound 0.0316 µM, first compound 1 µM
[5] = second compound 0.0316 µM, first compound 3.16 µM
[6] = second compound 0.0316 µM, first compound 10 µM
[7] = second compound 0.1 µM, first compound 0.0316 µM
[8] = second compound 0.1 µM, first compound 0.1 µM
[9] = second compound 0.1 µM, first compound 0.316 µM
[10] = second compound 0.1 µM, first compound 1 µM
[11] = second compound 0.1 µM, first compound 3.16 µM
[12] = second compound 0.1 µM, first compound 10 µM
[13] = second compound 0.316 µM, first compound 0.0316 µM
[14] = second compound 0.316 µM, first compound 0.1 µM
[15] = second compound 0.316 µM, first compound 0.316 µM
[16] = second compound 0.316 µM, first compound 1 µM
[17] = second compound 0.316 µM, first compound 3.16 µM
[18] = second compound 0.316 µM, first compound 10 µM
[19] = second compound 1 µM, first compound 0.0316 µM
[20] = second compound 1 µM, first compound 0.1 µM
[21] = second compound 1 µM, first compound 0.316 µM
[22] = second compound 1 µM, first compound 1 µM
[23] = second compound 1 µM, first compound 3.16 µM
[24] = second compound 1 µM, first compound 10 µM
[25] = second compound 3.16 µM, first compound 0.0316 µM
[26] = second compound 3.16 µM, first compound 0.1 µM
[27] = second compound 3.16 µM, first compound 0.316 µM
[28] = second compound 3.16 µM, first compound 1 µM
[29] = second compound 3.16 µM, first compound 3.16 µM
[30] = second compound 3.16 µM, first compound 10 µM
[31] = second compound 10 µM, first compound 0.0316 µM
[32] = second compound 10 µM, first compound 0.1 µM
[33] = second compound 10 µM, first compound 0.316 µM
[34] = second compound 10 µM, first compound 1 µM
[35] = second compound 10 µM, first compound 3.16 µM
[36] = second compound 10 µM, first compound 10 µM
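Also: spheroids exposed to compounds for 7 days.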
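For viability, T/C in this document: 100% = DMSO vehicle control viability.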

Compound: CCCS(=O)(=O)Nc1ccc(F)c(C(=O)c2c[nH]c3ncc(-c4ccc(Cl)cc4)cc23)c1F + CN(C)c1ccc(Nc2c3ccc(NC(=O)CCN4CCCC4)cc3nc3cc(NC(=O)CCN4CCCC4)ccc23)cc1
- IC50 (second compound 0.0316 µM): 9820 nM
- IC50 (second compound 0.1 µM): 9480 nM
- IC50 (second compound 0.316 µM): 3260 nM
- IC50 (second compound 1 µM): < 31.6 nM
- IC50 (second compound 3.16 µM): < 31.6 nM
- IC50 (second compound 10 µM): < 31.6 nM
- viability, T/C [1]: 99.8%
- viability, T/C [2]: 108%
- viability, T/C [3]: 102%
- viability, T/C [4]: 116%
- viability, T/C [5]: 93.7%
- viability, T/C [6]: 49.2%
- viability, T/C [7]: 76.9%
- viability, T/C [8]: 100%
- viability, T/C [9]: 84.2%
- viability, T/C [10]: 104%
- viability, T/C [11]: 94.5%
- viability, T/C [12]: 47.9%
- viability, T/C [13]: 43.8%
- viability, T/C [14]: 53.4%
- viability, T/C [15]: 55.8%
- viability, T/C [16]: 44.1%
- viability, T/C [17]: 56.2%
- viability, T/C [18]: 25.8%
- viability, T/C [19]: 5.16%
- viability, T/C [20]: 3.85%
- viability, T/C [21]: 4.58%
- viability, T/C [22]: 3.58%
- viability, T/C [23]: 3.49%
- viability, T/C [24]: 3.08%
- viability, T/C [25]: 0.35%
- viability, T/C [26]: 0.31%
- viability, T/C [27]: 0.72%
- viability, T/C [28]: 0.43%
- viability, T/C [29]: 0.5%
- viability, T/C [30]: 0.53%
- viability, T/C [31]: 0.11%
- viability, T/C [32]: 0.23%
- viability, T/C [33]: 0.24%
- viability, T/C [34]: 0.32%
- viability, T/C [35]: 0.57%
- viability, T/C [36]: 0.3%

Compound: COc1ncnc(C2CC2)c1-c1ncc2cnn(Cc3ccc(-c4nc(C(F)(F)F)cn4C(C)C)cc3)c2n1 + CN(C)c1ccc(Nc2c3ccc(NC(=O)CCN4CCCC4)cc3nc3cc(NC(=O)CCN4CCCC4)ccc23)cc1
- IC50 (second compound 0.0316 µM): > 10000 nM
- IC50 (second compound 0.1 µM): > 10000 nM
- IC50 (second compound 0.316 µM): < 31.6 nM
- IC50 (second compound 1 µM): < 31.6 nM
- IC50 (second compound 3.16 µM): < 31.6 nM
- IC50 (second compound 10 µM): < 31.6 nM
- viability, T/C [1]: 86.7%
- viability, T/C [2]: 100%
- viability, T/C [3]: 101%
- viability, T/C [4]: 104%
- viability, T/C [5]: 92.8%
- viability, T/C [6]: 86.3%
- viability, T/C [7]: 97%
- viability, T/C [8]: 93.3%
- viability, T/C [9]: 90.3%
- viability, T/C [10]: 88.9%
- viability, T/C [11]: 80.3%
- viability, T/C [12]: 67.1%
- viability, T/C [13]: 39.9%
- viability, T/C [14]: 37%
- viability, T/C [15]: 35.6%
- viability, T/C [16]: 28.8%
- viability, T/C [17]: 24.3%
- viability, T/C [18]: 11.6%
- viability, T/C [19]: 3.06%
- viability, T/C [20]: 1.98%
- viability, T/C [21]: 2.28%
- viability, T/C [22]: 1.99%
- viability, T/C [23]: 1.79%
- viability, T/C [24]: 1.02%
- viability, T/C [25]: 0.27%
- viability, T/C [26]: 0.25%
- viability, T/C [27]: 0.36%
- viability, T/C [28]: 0.22%
- viability, T/C [29]: 0.34%
- viability, T/C [30]: 0.18%
- viability, T/C [31]: 0.13%
- viability, T/C [32]: 0.32%
- viability, T/C [33]: 0.16%
- viability, T/C [34]: 0.41%
- viability, T/C [35]: 0.41%
- viability, T/C [36]: 0.19%

Compound: Cc1[nH]c2ccccc2c1CCNCc1ccc(/C=C/C(=O)NO)cc1 + CN(C)c1ccc(Nc2c3ccc(NC(=O)CCN4CCCC4)cc3nc3cc(NC(=O)CCN4CCCC4)ccc23)cc1
- IC50 (second compound 0.0316 µM): 55 nM
- IC50 (second compound 0.1 µM): 51.4 nM
- IC50 (second compound 0.316 µM): < 0.999 nM
- IC50 (second compound 1 µM): < 0.999 nM
- IC50 (second compound 3.16 µM): < 0.999 nM
- IC50 (second compound 10 µM): < 0.999 nM
- viability, T/C (second compound 0.0316 µM, first compound 0.000999 µM): 96.9%
- viability, T/C (second compound 0.0316 µM, first compound 0.00316 µM): 104%
- viability, T/C (second compound 0.0316 µM, first compound 0.00999 µM): 89.9%
- viability, T/C [1]: 76.9%
- viability, T/C (second compound 0.0316 µM, first compound 0.0999 µM): 22%
- viability, T/C [3]: 0.39%
- viability, T/C (second compound 0.1 µM, first compound 0.000999 µM): 95.4%
- viability, T/C (second compound 0.1 µM, first compound 0.00316 µM): 75.1%
- viability, T/C (second compound 0.1 µM, first compound 0.00999 µM): 84.5%
- viability, T/C [7]: 71.8%
- viability, T/C (second compound 0.1 µM, first compound 0.0999 µM): 20.2%
- viability, T/C [9]: 0.39%
- viability, T/C (second compound 0.316 µM, first compound 0.000999 µM): 46.9%
- viability, T/C (second compound 0.316 µM, first compound 0.00316 µM): 45.1%
- viability, T/C (second compound 0.316 µM, first compound 0.00999 µM): 48.8%
- viability, T/C [13]: 28%
- viability, T/C (second compound 0.316 µM, first compound 0.0999 µM): 10.8%
- viability, T/C [15]: 0.26%
- viability, T/C (second compound 1 µM, first compound 0.000999 µM): 4.23%
- viability, T/C (second compound 1 µM, first compound 0.00316 µM): 3.43%
- viability, T/C (second compound 1 µM, first compound 0.00999 µM): 4.51%
- viability, T/C [19]: 1.92%
- viability, T/C (second compound 1 µM, first compound 0.0999 µM): 0.8%
- viability, T/C [21]: 0.38%
- viability, T/C (second compound 3.16 µM, first compound 0.000999 µM): 0.41%
- viability, T/C (second compound 3.16 µM, first compound 0.00316 µM): 0.27%
- viability, T/C (second compound 3.16 µM, first compound 0.00999 µM): 0.37%
- viability, T/C [25]: 0.25%
- viability, T/C (second compound 3.16 µM, first compound 0.0999 µM): 0.14%
- viability, T/C [27]: 0.13%
- viability, T/C (second compound 10 µM, first compound 0.000999 µM): 0.18%
- viability, T/C (second compound 10 µM, first compound 0.00316 µM): 0.19%
- viability, T/C (second compound 10 µM, first compound 0.00999 µM): 0.16%
- viability, T/C [31]: 0.44%
- viability, T/C (second compound 10 µM, first compound 0.0999 µM): 0.27%
- viability, T/C [33]: 0.17%
